Measured values as given in article PMC8999917, “Structure–Activity Relationship of Synthetic Ginkgolic Acid Analogs for Treating Type 2 Diabetes by PTPN9 Inhibition” (International Journal of Molecular Sciences, 2022).

Columns and labels:
Assay type in all cases: cell-based, mouse
Akt phosphorylation = assay: Western blot of Akt phosphorylation in mature 3T3-L1 adipocytes; conditions: compound only group and insulin co-treatment group
Method: (§1) To further elucidate the pathway involved in 1e-mediated glucose uptake promotion, AMPK and Akt phosphorylation in mature 3T3-L1 adipocytes was evaluated via Western blotting following treatment with 5 or 10 µM 1e for 1 h.
(§2) The expression levels of glucose uptake-related proteins were determined via Western blotting, as previously described. In brief, differentiated 3T3-L1 cells were plated in six-well plates at a 1.5 × 10^4 cells/well density in a final volume of 2 mL. Then, the cells were incubated in the presence of DMSO or different concentrations of the compounds and harvested using a RIPA buffer (Sigma-Aldrich, Saint Louis, MS, USA) and a protease inhibitor cocktail (Roche Korea, Seoul, Korea) after 1 h of incubation. Equivalent amounts of proteins (20 µg) from each lysate were separated by 10% SDS-PAGE and transferred onto PVDF membranes (Merk KgaA, Darmstadt, Germany), where they were maintained for 120 min at 200 mA. The membranes were blocked with 5% skim milk for 1 h at room temperature in 0.1% TBST and then probed with primary antibodies at different concentrations in 0.1% BSA overnight at 4 °C according to the manufacturer’s instructions. Secondary antibodies were added to the membranes at a concentration of 1:2000 for 1 h at room temperature, and immunoreactive bands were detected via ECL (GE Healthcare Korea Co., Ltd., Incheon, Korea). […]

AMPK phosphorylation [1] = assay: Western blot of AMPK phosphorylation in mature 3T3-L1 adipocytes; conditions: 5 or 10 µM for 1 h
Method: as §1, §2

C2C12 myotubes = assay: 2-NBDG glucose uptake assay in C2C12 myotubes; conditions: 10 µM, plate reader fluorescence
Method: PTPN9 inhibitors have been reported to increase glucose uptake. To clarify the antidiabetic effects of GA analogs, a 2-NBDG (a fluorescent glucose probe) uptake assay was performed using differentiated 3T3-L1 adipocytes and C2C12 myotubes. After 16 h of starvation, differentiated 3T3-L1 adipocytes were incubated with compounds 1e and 1f for another 1 h. The cells were subsequently incubated with 2-NBDG for 30 min and washed with PBS before quantifying the fluorescence of 2-NBDG taken up by the cells. The 2-NBDG uptake-increasing effects of GA and its analogs in 3T3-L1 cells were monitored via confocal microscopy. The blank group was set in the absence of 2-NBDG but was treated with DMSO to determine the basal fluorescence levels in 3T3-L1 adipocytes (Figure 4A, Basal); in the negative control group, 3T3-L1 adipocytes were treated with 2-NBDG and DMSO for the evaluation of basal glucose uptake levels (Figure 4A, DMSO). […] Furthermore, to quantify 2-NBDG uptake, fluorescence intensity (Ex/Em = 485/535 nm) was measured using a plate reader. […] After incubation, the cells were washed with pre-cold PBS, and the fluorescence intensity was measured using a fluorescence microplate reader (Victor^TM X4, PerkinElmer, Waltham, MA, USA) (Ex/Em = 485/535 nm). […]

AMPK phosphorylation [2] = assay: Western blot of AMPK phosphorylation in C2C12 myotubes
Method: To further investigate the mechanism of action of 1e, we evaluated its effects on AMPK and AKT phosphorylation in C2C12 myotubes. […] In line with the results obtained in 3T3-L1 cells, in the absence of insulin, 1e had no effects on basal p-Akt expression levels (Figure 6A).
as §2, with “The membranes were blocked with 5% skim milk for 1 h at room temperature in 0.1% TBST and then probed with primary antibodies at different concentrations in 0.1% BSA overnight at 4 °C according to the manufacturer’s instructions.” left out

Q: With CCCCCCCCCCCCCOc1cccc(O)c1C(=O)O [Compound 1e] as the compound, how does the Akt phosphorylation levels (Akt phosphorylation) read?
A: no significant change

Q: And the AMPK phosphorylation (AMPK phosphorylation [1])?
A: significantly induced AMPK phosphorylation in a concentration-dependent manner

Q: What about the “2-NBDG uptake increase compared to the DMSO control” value (C2C12 myotubes) of the same compound?
A: ~1.4 fold

Q: What about the AMPK phosphorylation (AMPK phosphorylation [2]) of the same compound?
A: significantly upregulated AMPK phosphorylation in a concentration-dependent manner
